# Legend:
# [1] = test system: NFKB reporter in THP1-Dual cells; assay: NFKB reporter activity in THP1-Dual monocytes co-cultured with treated Jurkat cells; assay type: cell-based, human; conditions: Jurkat cells treated 24 hours, co-culture 24 hours; vs DMSO; FIG. 5B
# Description: (§1) Jurkat T cell leukemia cells were treated with either control (DMSO) or various doses of RSL3, for 24 hours prior to co-culture with THP1-Dual cells for an additional 24 hours. RSL3 was purchased from Selleckchem (Houston, Tex.) and dissolved in DMSO. Subsequently, the THP1 supernatants were assessed for NFKB or IRF reporter activity.
# (§2) Jurkat cells were acquired from ATCC and THP1-Dual cells acquired from InvivoGen (San Diego, Calif.). Both cell types were cultured in 96-well plates for the duration of the assay. 100,000 Jurkat cells were plated 24 hours prior to dosing with RSL3, with a final DMSO concentration of 0.5%. 24 hours post-treatment, THP1-Dual cells (25,000 cells/well) were added to the Jurkat cells. 24 hours later, 30 μl of supernatant was mixed with either 200 μl QuantiBlue (InvivoGen, San Diego, Calif.) or 50 μl QuantiLuc and absorbance or luminescence was recorded on a Molecular Devices plate reader.
# [2] = test system: NFKB reporter in THP1-Dual cells; assay: NFKB reporter activity in THP1-Dual monocytes co-cultured with treated Caki-1 cells; assay type: cell-based, human
# Description: Caki-1 renal cell carcinoma cells were treated with either control (DMSO) or various doses of Erastin, for 24 hours prior to co-culture with THP1-Dual cells for an additional 24 hours. Erastin was purchased from Selleckchem (Houston, Tex.) and dissolved in DMSO. Subsequently, the THP1 supernatants were assessed for NFKB or IRF reporter activity. Caki-1 cells were acquired from ATCC and THP1-Dual cells acquired from InvivoGen (San Diego, Calif.). Both cell types were cultured in 96-well plates for the duration of the assay. 7,500 Caki-1 cells were plated 24 hours prior to dosing with Erastin, with a final DMSO concentration of 0.5%. 24 hours post-treatment, THP1-Dual cells (25,000 cells/well) were added to the Caki-1 cells. 24 hours later, 30 μl of supernatant was mixed with either 200 μl QuantiBlue (InvivoGen) or 50 μl QuantiLuc and absorbance or luminescence was recorded on a Molecular Devices plate reader. Caki-1 renal cell carcinoma cells were treated with either control (DMSO) or various doses of RSL3, for 24 hours prior to co-culture with THP1-Dual cells for an additional 24 hours. RSL3 was purchased from Selleckchem and dissolved in DMSO. Subsequently, the THP1 supernatants were assessed for NFKB or IRF reporter activity. Caki-1 cells were acquired from ATCC and THP1-Dual cells acquired from InvivoGen (San Diego, Calif.). Both cell types were cultured in 96-well plates for the duration of the assay. 7,500 Caki-1 cells were plated 24 hours prior to dosing with RSL3, with a final DMSO concentration of 0.5%. 24 hours post-treatment, THP1-Dual cells (25,000 cells/well) were added to the Caki-1 cells. 24 hours later, 30 μl of supernatant was mixed with either 200 μl QuantiBlue (InvivoGen, San Diego, Calif.) or 50 μl QuantiLuc and absorbance or luminescence was recorded on a Molecular Devices plate reader. […] Subsequently, the THP1 supernatant was assessed for NFKB reporter activity. Caki-1 cells were acquired from ATCC and THP1-Dual cells acquired from InvivoGen (San Diego, Calif.). Both cell types were cultured in 96-well plates for the duration of the assay.
# [3] = test system: NFKB reporter in THP1-Dual cells; assay: NFKB reporter activity in THP1-Dual monocytes co-cultured with treated A20 cells; assay type: cell-based, human
# Description: as §1, with “A20 B-cell” for “Jurkat T cell”
# as §2, with “A20” for “Jurkat”, “50,000 A20” for “100,000 Jurkat”
# A20 lymphoma cells were treated with various doses (e.g. 0.002, 0.005, 0.014, 0.041, 0.123, 0.370, 1.111, 3.333 and 10 μM) of a GPX4 inhibitor (RSL3, ML162 or ML210) in the presence or absence of 1 μM Ferrostatin-1 for 24 hours. ML162 was purchased from Cayman Chemical Company Inc and resuspended in DMSO. ML210 was purchased from Sigma-Aldrich and resuspended in DMSO. A20 lymphoma cells were also treated with DMSO as a negative control. After treatment with DMSO or a GPX4 inhibitor for 24 hours, the A20 lymphoma cells were co-cultured with THP1-Dual cells for an additional 24 hours. Subsequently, the THP1 supernatant was assessed for NFKB reporter activity. A20 cells were acquired from ATCC and THP1-Dual cells were acquired from InvivoGen (San Diego, Calif.). Both cell types were cultured in 96-well plates for the duration of the assay.
# [4] = test system: Caki-1 renal cell carcinoma cells; assay: Viability of Caki-1 renal cell carcinoma cells after treatment; assay type: cell-based; conditions: 24 hours
# [5] = test system: IRF reporter in THP1-Dual cells; assay: IRF reporter activity in THP1-Dual monocytes co-cultured with treated A20 cells; assay type: cell-based, human; conditions: A20 cells treated 24 hours, co-culture 24 hours; vs DMSO; FIG. 6C
# Description: A20 B-cell leukemia cells were treated with either control (DMSO) or various doses of RSL3, for 24 hours prior to co-culture with THP1-Dual cells for an additional 24 hours. RSL3 was purchased from Selleckchem (Houston, Tex.) and dissolved in DMSO. Subsequently, the THP1 supernatants were assessed for NFKB or IRF reporter activity. A20 cells were acquired from ATCC and THP1-Dual cells acquired from InvivoGen (San Diego, Calif.). Both cell types were cultured in 96-well plates for the duration of the assay. 50,000 A20 cells were plated 24 hours prior to dosing with RSL3, with a final DMSO concentration of 0.5%. 24 hours post-treatment, THP1-Dual cells (25,000 cells/well) were added to the A20 cells. 24 hours later, 30 μl of supernatant was mixed with either 200 μl QuantiBlue (InvivoGen, San Diego, Calif.) or 50 μl QuantiLuc and absorbance or luminescence was recorded on a Molecular Devices plate reader.
structure (smiles),measurement,setting,value
COC(=O)c1ccc([C@H]2c3[nH]c4ccccc4c3C[C@H](C(=O)OC)N2C(=O)CCl)cc1 [RSL3],NFKB signaling in THP1 monocytes,[1],elicited NFKB signaling in THP1 monocytes
same,NFKB signaling in THP1 monocytes,"[2]; Caki-1 cells treated 24 hours, co-culture 24 hours, vs DMSO, FIG. 3B, 4B",elicited NFKB signaling in THP1 monocytes
same,"NFKB activity in THP1 cells, dose dependence","[2]; Caki-1 cells treated with RSL3 or ML162, FIG. 13B, 14B",increased NFKB activity in THP1 cells in a dose dependent manner
same,NFKB signaling in THP1 monocytes,"[3]; A20 cells treated 24 hours, co-culture 24 hours, vs DMSO, FIG. 6B",elicited
same,"NFKB activity in THP1 cells, dose dependence","[3]; A20 lymphoma cells treated with GPX4 inhibitor, FIG. 10B, 11B, 12B",increased NFKB activity in THP1 cells in a dose dependent manner
same,"viability of Caki-1 renal carcinoma cells, dose dependence","[4]; GPX4 inhibitor various doses, FIG. 13A, 14A",decreased viability of the cells in a dose dependent manner
same,viability of Caki-1 cells,"[4]; various doses, FIG. 3A, 4A",negatively affected the viability
same,IRF signaling in THP1 monocytes,[5],elicited
